Here are results for eight molecules from PubChem BioAssay AID1963838 (Molecular Pharmacology Branch, DTP, NCI, 2024).

Where “and” joins values, the source holds several entries; their conditions need not be identical. Equal values may be shown once. A value given as a limit tells only on which side of the number the result lay.

The experiment has as its system 855422-203-R-J1-PDC complex spheroid viability. Put plainly: Anticancer human tumor 855422-203-R-J1-PDC patient-derived bladder carcinoma cell line growth inhibition [POLQ]. The conditions noted are these: for viability, T/C: stronger effect = lower value. On the procedure: Multicellular complex tumor spheroid response to Polymerase (POL) inhibitors (novobiocin, ART-558, RP6685) in combination with a variety of drugs and investigational agents in selected tumor cell lines
The POL inhibitors (novobiocin, ART-558, and RP6685) were evaluated both individually and in combination with standard of care and investigational anticancer small molecules within a complex spheroid model of solid tumors. . Complex spheroids include a stromal component modeled by human endothelial cells (HUVEC) and fibroblasts modeled by human mesenchymal stem cells (MSCs). The concentration ranges selected for each drug and investigational agent were based upon clinically achievable concentrations if the clinical Cmax of the agent was known.
Compounds. The drugs and investigational agents: novobiocin (NSC847541), ART-558 (NSC835418), RP-6685 (NSC848927), peposertib (NSC802822), ceralasertib (NSC780249), elimusertib (NSC800525), camonsertib (NSC841442), AZD-1390 (NSC803789), olaparib (NSC753686), talazoparib (NSC767125), rucaparib (NSC756644), sotorasib (NSC818433), MRTX-1133 (NSC836407), SN-38 (NSC673596), topotecan (NSC609699), epotoside (NSC141540), doxorubicin (NSC123127), gemcitabine (NSC613327), 5-fluorouracil (NSC19893), paclitaxel (NSC125973), vemurafenib (NSC761431), MSA-2 (NSC828583), SN-011 (NSC837082), adavosertib (NSC754352), prexasertib (NSC758257), carboplatin (NSC241240) and oxaliplatin (NSC266046), were obtained from the National Cancer Institute (NCI) Developmental Therapeutics Program Chemical Repository (21). The FDA-approved anticancer drug set is available from the Developmental Therapeutics Program at https://dtp.cancer.gov/organization/dscb/obtaining/. […] The stock solutions were prepared in dimethyl sulfoxide (DMSO, Sigma-Aldrich, St. Louis, MO, cat. D2650), except for the platinum compounds which were prepared in saline (Quality Biological, Gaithersburg, MD, cat. 114-055-101), at 800-fold the tested concentration and stored at -70 degrees C prior to their use. All drugs and investigational agents were tested over a range starting from a high concentration at or near the clinical Cmax and decreasing in half-log increments. If the clinical Cmax for an agent had not been determined, the highest concentration tested was 10 microM, except for SN-38, which was tested at a high concentration of 1 microM.
Cell Culture. All cells were maintained in an incubator at 37 degrees C and 5% CO2 with 95% humidity. The PDC lines were cultured according to standard operating procedures established by the NCI PDMR (https://pdmr.cancer.gov). Table 3 of the manuscript, lists the cell lines along with the number of the three cell types plated to form the mct-spheroids and media for tumor cell growth. After thawing, all PDC lines, except 997537-175-T-J1-PDC and 415267-285-R-J2-PDC, were cultured in Matrigel-coated flasks prepared with a working solution of 1X Ham's F-12 nutrient mix, without supplementation (Thermo Fisher Scientific, cat. 11765054), 100 U/mL penicillin-streptomycin (Thermo Fisher Scientific, cat. 15140122), and 2.5% Matrigel (Corning Inc., Corning, NY, cat. 354248) for the first three passages. The two PDC lines 997537-175-T-J1-PDC and 415267-285-R-J2-PDC were cultured on uncoated flasks. The 857933-349-R-J2-PDC line was cultured in 6C/Colon 1B media containing advanced DMEM/F-12 (Thermo Fisher Scientific, cat. 12634028), 10 mM HEPES (Thermo Fisher Scientific, cat. 15630080), 1X GlutaMAX supplement (Thermo Fisher Scientific, cat. 35050061), 0.1 mg/mL primocin (InvivoGen, San Diego, CA, cat. ant-pm-2), 10% defined fetal bovine serum, heat inactivated (HyClone Laboratories Inc., Logan, UT, cat. SH30070.03HI), 50% L-WRN conditioned media (ATCC, cat. CRL-3276), 1.25 mM N-Acetyl-L-cysteine (Sigma-Aldrich, cat. A9165), 10 mM nicotinamide (Sigma-Aldrich, cat. N0636), 1X B-27 supplement (Thermo Fisher Scientific, cat. 17504044), 1X N-2 supplement (Thermo Fisher Scientific, cat. […]
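Further: spheroids exposed to compounds for seven days before readout.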

Take `C#Cc1c(F)ccc2cc(O)cc(-c3ncc4c(N5CC6CCC(C5)N6)nc(OCC56CCCN5CC(F)C6)nc4c3F)c12` (stereo unspecified): the viability, T/C (in general, the ratio of treated to control) (compound 0.0316 µM) is 120% and 105% and 97.1%; the viability, T/C (compound 0.1 µM) is 106% and 100% and 107%; the viability, T/C (compound 0.316 µM) is 87.3% and 94.5% and 105%; the viability, T/C (compound 1 µM) is 98.4% (2×) and 94.2%; the viability, T/C (compound 3.16 µM) is 97.4% and 109% and 119%; the viability, T/C (compound 10 µM) is 104% and 98% and 121%. In addition, the IC50 (usually the concentration needed to halve the response being measured) (curve of compound) is above 10000 nM.

Take `C=CC(=O)N1CCN(c2nc(=O)n(-c3c(C)ccnc3C(C)C)c3nc(-c4c(O)cccc4F)c(F)cc23)C(C)C1` (stereo unspecified): the viability, T/C runs as follows: (compound 0.0316 µM) 106% and 101% and 103%; (compound 0.1 µM) 89% and 126% and 115%; (compound 0.316 µM) 117% and 111% and 114%; (compound 1 µM) 101% and 130% and 102%; (compound 3.16 µM) 129% and 144% and 132%; (compound 10 µM) 127% and 135% and 113%. Besides, the half-inhibitory concentration (IC50) (curve of compound) was above 10000 nM.

Take `CC1COCCN1c1cc(C2(O)CC3CCC(C2)O3)c2cnn(-c3ccn[nH]3)c2n1` (stereo unspecified): the viability, T/C (compound 0.0316 µM) was 98.5% and 101% and 111%; the viability, T/C (compound 0.1 µM) was 49.5% and 43.5% and 74.9%; the viability, T/C (compound 0.316 µM) is 15.2% and 14.2% and 20.3%; the viability, T/C (compound 1 µM) is 10.6% and 9.31% and 13.1%; the viability, T/C (compound 3.16 µM) is 6.4% and 7.44% and 9.6%; the viability, T/C (compound 10 µM) is 3.63% and 5.73% and 6.18%. For the same molecule, where the note is “curve of compound”, the IC50 is 98.2 nM and 87.6 nM and 170 nM.

Take `CCc1cc2c(N3CCc4c(cc(Cn5ccnc5)cc4-c4cn(C)nc4C(F)(F)F)C3=O)cc(C)nc2c(OC)n1`: the viability, T/C is 89.8% and 99.4% and 115% (compound 0.0316 µM); 81.6% and 103% and 101% (compound 0.1 µM); 74.5% and 132% and 120% (compound 0.316 µM); 62.8% and 85.8% and 94.5% (compound 1 µM); 49.1% and 62% and 75.6% (compound 3.16 µM); 26.1% and 50.8% and 38.6% (compound 10 µM). Besides, the IC50 (curve of compound) is 2620 nM and > 10000 nM and 6960 nM.

As for `CCc1cc2c(N3CCc4c(cc(Cn5ccnc5)cc4-c4cn(C)nc4C(F)(F)F)C3=O)ccnc2c(OC)n1`, the viability, T/C is, setting by setting: (compound 0.0316 µM) 83.3% and 126% and 119%; (compound 0.1 µM) 84.9% and 133% and 116%; (compound 0.316 µM) 73.8% and 136% and 139%; (compound 1 µM) 74.3% and 100% and 104%; (compound 3.16 µM) 47.2% and 73.1% and 78.9%; (compound 10 µM) 32.6% and 47.8% and 46.6%. In addition, where the note is “curve of compound”, the IC50 was 2870 nM and 9660 nM and 8960 nM.

Regarding `COc1cc2cc(C(=O)CCC(=O)O)sc2cc1OC`, the viability, T/C by setting is: (compound 0.0316 µM) 93.5% and 102% and 106%; (compound 0.1 µM) 128% and 88.2% and 104%; (compound 0.316 µM) 98.3% and 108% and 107%; (compound 1 µM) 97.8% and 87.2% and 98.9%; (compound 3.16 µM) 111% (2×) and 106%; (compound 10 µM) 112% and 119% and 102%. The concentration for half-maximal inhibition (IC50) (curve of compound) was above 10000 nM.

As to `O=C(Nc1ccc(O)c(NS(=O)(=O)c2ccc(F)cc2)c1)c1ccc(-c2ccccc2)cc1`, the viability, T/C by setting is: (compound 0.0316 µM) 106% and 92.6% and 110%; (compound 0.1 µM) 118% and 99.2% and 113%; (compound 0.316 µM) 98.8% and 110% and 113%; (compound 1 µM) 112% and 108% and 97.7%; (compound 3.16 µM) 99.4% and 106% and 92.8%; (compound 10 µM) 74% and 70.5% and 45.6%. The half-maximal inhibitory concentration (IC50) (curve of compound) was > 10000 nM and 9080 nM.

Consider `COc1cc(C2c3cc4c(cc3C(OC3OC5COC(C)OC5C(O)C3O)C3COC(=O)C23)OCO4)cc(OC)c1O` (stereo unspecified) + COC1C(OC(N)=O)C(O)C(Oc2ccc3c(O)c(NC(=O)c4ccc(O)c(CC=C(C)C)c4)c(=O)oc3c2C)OC1(C)C, for which the IC50 (curve of first compound, second compound 0.0316 µM) is 242 nM; the IC50 (curve of first compound, second compound 0.1 µM) is 245 nM; the 50% inhibitory concentration (IC50) (curve of first compound, second compound 0.316 µM) worked out at 227 nM; the IC50 (curve of first compound, second compound 1 µM) is 234 nM; the IC50 (curve of first compound, second compound 3.16 µM) was determined as 210 nM; the IC50 (curve of first compound, second compound 10 µM) was determined as 215 nM. Moreover, the viability, T/C reads like this: (second compound 0.0316 µM, first compound 0.0316 µM) 99.4%; (second compound 0.0316 µM, first compound 0.1 µM) 99.7%; (second compound 0.0316 µM, first compound 0.316 µM) 35.1%; (second compound 0.0316 µM, first compound 1 µM) 11.9%; (second compound 0.0316 µM, first compound 3.16 µM) 8.5%; (second compound 0.0316 µM, first compound 10 µM) 5.28%. The viability, T/C was 95.2% (second compound 0.1 µM, first compound 0.0316 µM); 102% (second compound 0.1 µM, first compound 0.1 µM); 36.2% (second compound 0.1 µM, first compound 0.316 µM); 12.8% (second compound 0.1 µM, first compound 1 µM); 7.81% (second compound 0.1 µM, first compound 3.16 µM); 4.05% (second compound 0.1 µM, first compound 10 µM). Moreover, the viability, T/C (second compound 0.316 µM, first compound 0.0316 µM) was 99.2%; the viability, T/C (second compound 0.316 µM, first compound 0.1 µM) was 103%; the viability, T/C (second compound 0.316 µM, first compound 0.316 µM) was 29.4%; the viability, T/C (second compound 0.316 µM, first compound 1 µM) was 13.3%; the viability, T/C (second compound 0.316 µM, first compound 3.16 µM) was 8.9%; the viability, T/C (second compound 0.316 µM, first compound 10 µM) was 5.06%. Moreover, the viability, T/C (second compound 1 µM, first compound 0.0316 µM) was 107%; the viability, T/C (second compound 1 µM, first compound 0.1 µM) was 99.7%; the viability, T/C (second compound 1 µM, first compound 0.316 µM) was 32.2%; the viability, T/C (second compound 1 µM, first compound 1 µM) is 11.6%; the viability, T/C (second compound 1 µM, first compound 3.16 µM) was 7.12%; the viability, T/C (second compound 1 µM, first compound 10 µM) was 4.08%. Moreover, the viability, T/C reads like this: (second compound 3.16 µM, first compound 0.0316 µM) 128%; (second compound 3.16 µM, first compound 0.1 µM) 85.9%; (second compound 3.16 µM, first compound 0.316 µM) 29.5%; (second compound 3.16 µM, first compound 1 µM) 12.7%; (second compound 3.16 µM, first compound 3.16 µM) 8.6%; (second compound 3.16 µM, first compound 10 µM) 4.59%. Besides, the viability, T/C by setting is: (second compound 10 µM, first compound 0.0316 µM) 111%; (second compound 10 µM, first compound 0.1 µM) 88.8%; (second compound 10 µM, first compound 0.316 µM) 29.9%; (second compound 10 µM, first compound 1 µM) 12.9%; (second compound 10 µM, first compound 3.16 µM) 7.13%; (second compound 10 µM, first compound 10 µM) 5.19%.
